Source: patent publication US20240132559A1, “COMPOSITIONS AND METHODS FOR MODULATING MYC EXPRESSION” (FLAGSHIP PIONEERING INNOVATIONS V, INC., priority 2020, published 2024)

Tests used:
A549 cells [1] = assay: A549 cell viability, ZF9-MQ1 alone and with BET or MEK inhibitors (CellTiter-GLO); type: cell-based, human; settings: 72-hour incubation, single agent
Protocol: This example evaluates the effect of ZF9-MQ1 construct on A549 cell viability when used in combination with varying concentrations of JQ1 inhibitor.
(§1) A549 cells were seeded at 4,000 cells per well in duplicate plates for cell viability analysis. The 96-well plates were treated in triplicate with GFP or ZF9-MQ1 loaded LNPs at 0.5 ug/mL or 1.0 μg/mL in combination with increasing concentrations of the BET inhibitor JQ1 (concentrations up to 6.25 uM) and incubated. Untreated cells and GFP treated cells were used as controls. After 72-hour incubation, one 96-well plate was lysed with CellTiter-GLO® and luminescence was quantified using the GloMax® Discovery plate reader.
This example evaluates the effect of ZF9-MQ1 construct on A549 cell viability when used in combination with varying concentrations of BET762 inhibitor.
as §1, with “μg/mL” for “ug/mL”, “concentrations (concentrations up to 1.25 uM)” for “concentrations”, “BET762” for “JQ1 (concentrations up to 6.25 uM)”
This example evaluates the effect of ZF9-MQ1 construct on A549 cell viability when used in combination with varying concentrations of BET inhibitor, Birabresib.
as §1, with “μg/mL” for “ug/mL”, “concentrations (concentrations up to 0.625 uM for 0.5 μg/ml ZF9-MQ1 treated cells and up to 0.313 uM for 1.0 μg/ml ZF9-MQ1 treated cells)” for “concentrations”, “Birabresib” for “JQ1 (concentrations up to 6.25 uM)”
This example evaluates the effect of ZF9-MQ1 construct on A549 cell viability when used in combination with varying concentrations of MEK inhibitor, Trametinib.
as §1, with “μg/mL” for “ug/mL”, “concentrations” for “concentrations of the BET inhibitor JQ1”, “0.05” for “6.25”, “uM) of the MEK inhibitor Trametinib” for “uM)”, “Untreated cells and GFP treated cells were used as controls.” left out

A549 cells [2] = assay: A549 viability with ZF9-MQ1 and small molecule inhibitors, alone and combined; type: cell-based, human; settings: each agent separately
SKHEP1 and Hep 3B cells = assay: IC50 of sorafenib or JQ1 in combination with bi-cistronic ZF9-MQ1_ZF3-KRAB; type: cell-based, human; settings: with bi-cistronic ZF9-MQ1_ZF3-KRAB at 0.6 and 0.1 ug/ml
Hep 3B cells = assay: JQ1 dose response viability with bi-cistronic ZF9-MQ1_ZF3-KRAB (CellTiter-GLO); type: cell-based; settings: Homo sapiens, Hep3B, 72 h
Description: (§2) This example evaluates the efficacy of bi-cistronic ZF9-MQ1_ZF3-KRAB in combination with JQ1 (BET inhibitor) in multiple HCC cell lines. […] Later generation BET inhibitors are currently being evaluated in the clinic for hematologic indications; however, their toxicity profile have limited their use. Combination treatments that can increase the potency of BET inhibitors at reduced dose levels could improve BET inhibitor tolerability.
(§3) To evaluate potential synergy between bi-cistronic ZF9-MQ1_ZF3-KRAB and JQ1, Hep 3B or SK-HEP-1 cells were plated in 96 well plates at 10,000 cells per well. Cells were then treated with JQ1 with a dose range between 0.1 and 25 μM, with serial dilution of 1:2. Lipid mix carrying bi-cistronic ZF9-MQ1_ZF3-KRAB was then added to a set of the wells at a dose of 0.1 or 0.6 μg/mL. A set of cells was treated with JQ1 alone to use as control. Following 72-hour treatment, cells were lysed with the CellTiter-GLO® reagent and luminescence was quantified using the Glo Max. Relative cell viability was calculated by averaging the untreated values and dividing each experimental luciferase value by that average.

SK-HEP-1 cells = assay: as above; type: cell-based; settings: Homo sapiens, SK-HEP1, 72 h, SKHEP-1, 72-hour
Description: as §2, §3

MYC = MYC mRNA expression by qPCR in human lung cancer cell lines after LNP transfection; type: cell-based
Protocol: Viability was measured using the CellTiter-GLO® assay kit from Promega according to manufacturer's protocol. RNA was isolated from three biological replicates, using the Rneasy® Plus 96-well Kit (Qiagen) following the Manufacturer's protocol. RNA samples were retrotranscribed to cDNA using LunaScript® RT SuperMix Kit (NEB) and analyzed by quantitative PCR (qPCR) (in technical triplicates) using a MYC specific TaqMan™ primer/probe set assay with the TaqMan™ Fast Advanced Master Mix (Thermo Scientific). MYC expression was quantified relative to the expression of GAPDH reference genes using the ΔΔCt method, the untreated and dCas9(no-effector) samples were used as calibrators.
(§4) Guide RNAs (Table 13) were designed across the lung super-enhancer region and tested in combination with the KRAB repressor protein conjugated to an enzymatically dead CAS9. The effector mRNA and guide RNAs were co-delivered using LNP delivery with SSOP with mRNA delivery of GFP as a negative control. NCSLC cell line A549 were seeded in 96-well plates in growth media (10000 cells/well). LNP formulations (2.5 ug/ml) were then added to the cells to transfect the effector mRNA/guide RNA then incubated for 72 hours. RNA was isolated from three biological replicates, using the Rneasy® Plus 96-well Kit (Qiagen) following the Manufacture's protocol. RNA samples were retrotranscribed to cDNA using LunaScript® RT SuperMix Kit (NEB) and analyzed by quantitative PCR (qPCR) (in technical triplicates) using a MYC specific TaqMan™ primer/probe set assay with the TaqMan™ Fast Advanced Master Mix (Thermo Scientific). MYC expression was quantified relative to the expression of GAPDH reference genes using the ΔΔCt method, the untreated samples were used as calibrators.
as §4, with “GuideRNAs” for “Guide RNAs”, “MC3” for “SSOP”
Guide RNAs (GD-29833 and GD-29914) targeted to the MYC super-enhancer were tested in combination with repressor proteins including the histone methyltransferase EZH2 (alone or in conjunction with KRAB) and the DNA methyltransferase MQ1 conjugated to an enzymatically dead CAS9. The effector mRNA and guide RNAs were co-delivered using LNP delivery with SSOP with mRNA delivery of GFP as a negative control. NCSLC cell lines A549 or NCI-H2009 were seeded in 96-well plates in growth media (10000 cells/well). LNP formulations (2.5 ug/ml) were then added to the cells to transfect the effector mRNA/guide RNA then incubated for 72 hours. RNA was isolated from three biological replicates, using the Rneasy® Plus 96-well Kit (Qiagen) following the Manufacture's protocol. RNA samples were retrotranscribed to cDNA using LunaScript® RT SuperMix Kit (NEB) and analyzed by quantitative PCR (qPCR) (in technical triplicates) using a MYC specific TaqMan′ primer/probe set assay with the TaqMan™ Fast Advanced Master Mix (Thermo Scientific). MYC expression was quantified relative to the expression of GAPDH reference genes using the ΔΔCt method, the untreated samples were used as calibrators. […]

[3] = bi-cistronic ZF9-MQ1_ZF3-KRAB 0 μg/ml
[4] = bi-cistronic ZF9-MQ1_ZF3-KRAB 0.1 μg/ml
[5] = bi-cistronic ZF9-MQ1_ZF3-KRAB 0.6 μg/ml
[6] = A549, guide delivered with KRAB or MQ1, 120 hours
[7] = A549, guide delivered with dCAS9-KRAB effector mRNA, MC3 LNP 2.5 ug/ml, 72 hours
[8] = A549, guide delivered with dCAS9-KRAB effector mRNA, SSOP LNP 2.5 ug/ml, 72 hours
[9] = A549, guide delivered with dCas9 effectors EZH2, EZH2-KRAB and MQ1, 72 hours
[10] = NCI-H2009, guide delivered with KRAB or MQ1, 120 hours
[11] = NCI-H2009, guide delivered with dCas9 effectors EZH2, EZH2-KRAB and MQ1, 72 hours

Compound	A549 cell viability, each agent separately (A549 cells [1])	inhibition of A549 cell viability, single agent (A549 cells [2])	MYC mRNA down-regulation (in words) (MYC; [6])	MYC mRNA down-regulation (in words) (MYC; [7])	MYC mRNA down-regulation (in words) (MYC; [8])	MYC mRNA down-regulation (in words) (MYC; [9])	MYC mRNA down-regulation (in words) (MYC; [10])	MYC mRNA down-regulation (in words) (MYC; [11])	other results
CCNC(=O)C[C@@H]1N=C(c2ccc(Cl)cc2)c2cc(OC)ccc2-n2c(C)nnc21 [BET762]	inhibited cell viability	inhibited cell viability of A549 cells	–	–	–	–	–	–	–
Cc1sc2c(c1C)C(c1ccc(Cl)cc1)=N[C@@H](CC(=O)OC(C)(C)C)c1nnc(C)n1-2 [JQ1]	inhibited cell viability	inhibited cell viability of A549 cells	–	–	–	–	–	–	IC50 of JQ1 (SKHEP1 and Hep 3B cells; Hep 3B): reduced; IC50 of JQ1 (SKHEP1 and Hep 3B cells; SKHEP1): reduced; IC50 (Hep 3B cells; [3]): 6.6 µM; IC50 (Hep 3B cells; [4]): 0.6 µM; IC50 (Hep 3B cells; [5]): 0.2 µM; IC50 (SK-HEP-1 cells; [3]): > 25 µM; IC50 (SK-HEP-1 cells; [4]): 1.9 µM; IC50 (SK-HEP-1 cells; [5]): 1.1 µM
Cc1sc2c(c1C)C(c1ccc(Cl)cc1)=N[C@@H](CC(=O)Nc1ccc(O)cc1)c1nnc(C)n1-2 [birabresib]	inhibited cell viability	inhibited cell viability of A549 cells	–	–	–	–	–	–	–
CC(=O)Nc1cccc(-n2c(=O)n(C3CC3)c(=O)c3c(Nc4ccc(I)cc4F)n(C)c(=O)c(C)c32)c1 [trametinib]	inhibited cell viability	inhibited cell viability of A549 cells	–	–	–	–	–	–	–
GD-29833: guide RNA to MYC lung super-enhancer, SEQ ID NO: 96 (guide TGCCACTTCCCCACTAACCC; listed as DNA, chemistry not given here; listed as Homo sapiens)	–	–	significantly downregulate MYC mRNA levels	effectively downregulate MYC mRNA levels	effectively downregulate MYC mRNA levels	effectively downregulate MYC mRNA levels	significantly downregulate MYC mRNA levels	effectively downregulate MYC mRNA levels	–
GD-29914: guide RNA to MYC lung super-enhancer, SEQ ID NO: 108 (guide CAGCACTCTCGCTGACCGCA; listed as DNA, chemistry not given here; listed as Homo sapiens)	–	–	significantly downregulate MYC mRNA levels	effectively downregulate MYC mRNA levels	effectively downregulate MYC mRNA levels	effectively downregulate MYC mRNA levels	significantly downregulate MYC mRNA levels	effectively downregulate MYC mRNA levels	–
